One data set addresses 3CLpro (Severe acute respiratory syndrome coronavirus 2, UniProt P0DTD1). As to the kind of experiment: 3CLpro FRET assay. It is filed as biochemical, SARS-CoV-2.
Data set [1] deals with SARS-CoV-2. Put plainly: Inhibition of SARS-CoV-2 replication in cell lines (viral RNA by qPCR). It is filed as cell-based. For orientation: Real-time PCR tracks product formation cycle by cycle.
A short description of data set [2]: Viability of uninfected cell lines (MTT assay). It is filed as cell-based, human; african green monkey. The conditions noted are these: human (Calu-3, T84); African green monkey (Vero E6); uninfected Calu-3, T84, Vero E6; 48 h; MTT; read-out: half cytotoxic concentration (CC50) range. The protocol: (§1) D) Uninfected cell lines of lung (Calu-3), gut (T84) and kidney (Vero E6) origin were left untreated or treated with serial dilutions of cobicistat. Forty-eight hours post-treatment cellular viability was measured by MTT assay. Data, expressed as mean±SD of three independent experiments, were normalized to the untreated control and CC50 values were calculated by nonlinear regression.
(§2) Cell viability was evaluated by (3-[4,5-dimethylthiazol-2-yl]-2,5 diphenyl tetrazolium bromide) (MTT) assay and by crystal violet staining as previously described (Shytaj et al. 2020; Feoktistova, Geserick, and Leverkus 2016). Briefly, the MTT assay was conducted using the CellTiter 96® Non-Radioactive Cell Proliferation Assay (MTT) (Promega; Madison, Wis., USA). Cells were plated in a 96-well plate at a concentration of 3×10^6 cells/mL in 100 μl of medium. The MTT solution (15 μl) was added to each well and, after 2-4 h, the reaction was stopped by the addition of 100 μl of 10% SDS. Absorbance values were acquired using an Infinite 200 PRO (Tecan, Männedorf, Switzerland) multimode plate reader at 570 nm wavelength.
(§3) Data normality assumptions were tested by D'Agostino & Pearson normality test (for >3). […] Synergy scores were calculated using the SynergyFinder web-tool (Ianevski et al. 2020) using the Zero Interaction Potency (ZIP) model (Yadav et al. 2015).
(Formazan colour is commonly taken as a measure of viable cells.)

Data set [3] deals with Calu-3, T84 and Vero E6 cells. Put plainly: Viability of uninfected cell lines (MTT assay). It is filed as cell-based, human; african green monkey. As to conditions: cobicistat 5-10 μM. The protocol:
as §1, §2, §3

Another data set has as its target SARS-CoV-2 S-protein (Severe acute respiratory syndrome coronavirus 2, UniProt P0DTC2). Put plainly: Syncytia formation assay in Vero E6 cells transfected with the S-protein. It is filed as cell-based.
For data set [4], the system named is SARS-CoV-2. It is filed as cell-based. As to conditions: cobicistat 5-10 μM; MTT and crystal violet; Calu-3, T84, Vero E6.
The target in another data set is HIV-1 protease (Human immunodeficiency virus type 1 group M subtype B, UniProt P04585). As to conditions: read-out: EC50 against the HIV-1 protease; selleckchem product page; cited from earlier work.
For data set [5] the following is noted: humans, standard dosing 150 mg/day; cited from earlier work.
For data set [6] the following is noted: mice, 50 mg/Kg; cited from earlier work.

Each structure is given as a SMILES string. Where a SMILES comes first, the peptide text is derived from it. The star is where a group is joined. Cbz = O=C(OCc1ccccc1)*

`CC(C)C[C@@H](C=O)NC(=O)[C@H](CC(C)C)NC(=O)[C@H](CC(C)C)NC(=O)OCc1ccccc1` [MG-132] (Cbz-Leu-Leu-Leu-aldehyde): the “effect on catalytic activity of 3CLpro” value at 3CLpro is “potently reduced the catalytic activity”.

Broadly, the EC50 is the concentration giving half of the maximal effect. With `CC(C)c1nc(CN(C)C(=O)N[C@@H](CCN2CCOCC2)C(=O)N[C@H](CC[C@H](Cc2ccccc2)NC(=O)OCc2cncs2)Cc2ccccc2)cs1` [Cobicistat, 1,3-thiazol-5-ylmethyl [(2R,5R)-5-{[(2S)-2-({[(2-isopropyl-1,3-thiazol-4-yl)methyl](methyl)carbamoyl}amino)-4-(morpholin-4-yl)butanoyl]amino}-1,6-diphenylhexan-2-yl]carbamate], the “viral RNA release in supernatant” value in the data set on SARS-CoV-2 [1] (Calu-3, Vero E6, T84, MOI 0.05 and 0.5, treated 2 h post-infection) was “dose dependent effect in decreasing viral RNA release”. Further, the “virus RNA amounts by qPCR, intracellular and supernatant” value with SARS-CoV-2 [1] (Calu-3 cells, time course, low micromolar concentrations) is on record as “dose dependent inhibitory effect”. In addition, the IC50 with SARS-CoV-2 [1] (Severe acute respiratory syndrome coronavirus 2, 48 h, read-out: range of IC50 concentrations) was 0.58 to 8.76 µM. The CC50 at 48 h in data set [2] lay in the range of 38.7 to 53 µM. For the same molecule, in data set [3], the “tolerability by uninfected cells” value was “well tolerated”. Also, on 3CLpro, the “effect on catalytic activity of 3CLpro” value was “inactive”. Besides, the “concentration range with effect in syncytia assay” value on SARS-CoV-2 S-protein was in the range of 5 to 10 µM. On SARS-CoV-2 S-protein (24 h post transfection), the syncytia formation entry is recorded as “decreased syncytia formation”. In the data set with SARS-CoV-2 [4], the “viability of infected cells” value was “partially rescue viability of infected cells”. The EC50 on HIV-1 protease is over 30 µM. Moreover, the maximum plasma concentrations entry in [5] is recorded as “≈ 1 μM”. For the same molecule, in [6], the “plasma levels compared with in vitro IC50 and CC50” value is “clearly above all IC50 values calculated in our experiments, while remaining below the CC50 concentrations”.

The values above are taken from patent US20230107186A1, “COBICISTAT FOR PREVENTION AND/OR TREATMENT OF CORONAVIRUS INFECTIONS” (priority 2020, published 2023).
